We go through four molecules from patent US20150209379A1, “TREATMENT OF PROSTATE CANCER AND HEMATOLOGIC NEOPLASMS” (THOMAS JEFFERSON UNIVERSITY, priority 2012, published 2015).

In one test the target is T1, Stat5b (Homo sapiens, UniProt P51692).
T1 construct: expressed in transfected cells; host or cells: PC-3 human prostate cancer cells
T1 sequence (P51692 1-787): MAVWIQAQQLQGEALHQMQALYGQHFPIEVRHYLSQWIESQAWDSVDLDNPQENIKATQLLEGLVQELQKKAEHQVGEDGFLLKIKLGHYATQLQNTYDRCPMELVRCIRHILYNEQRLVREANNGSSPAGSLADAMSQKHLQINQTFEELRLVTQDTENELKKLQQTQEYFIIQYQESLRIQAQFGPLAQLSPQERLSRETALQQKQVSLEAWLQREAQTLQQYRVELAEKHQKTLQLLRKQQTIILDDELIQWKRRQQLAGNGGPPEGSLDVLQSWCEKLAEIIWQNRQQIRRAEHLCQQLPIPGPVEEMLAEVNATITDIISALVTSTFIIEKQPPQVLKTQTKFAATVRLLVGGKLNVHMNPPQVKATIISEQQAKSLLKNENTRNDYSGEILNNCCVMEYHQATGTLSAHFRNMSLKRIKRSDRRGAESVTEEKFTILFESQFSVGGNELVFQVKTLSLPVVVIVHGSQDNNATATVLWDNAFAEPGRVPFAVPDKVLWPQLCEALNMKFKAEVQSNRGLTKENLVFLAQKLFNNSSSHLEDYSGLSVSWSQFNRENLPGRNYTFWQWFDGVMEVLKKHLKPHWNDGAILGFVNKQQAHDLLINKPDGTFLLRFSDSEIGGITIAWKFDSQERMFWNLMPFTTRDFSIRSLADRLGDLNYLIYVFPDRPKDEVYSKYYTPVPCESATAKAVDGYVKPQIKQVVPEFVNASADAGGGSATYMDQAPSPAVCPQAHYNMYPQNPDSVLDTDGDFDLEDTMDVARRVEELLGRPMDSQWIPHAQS
Kind of test: Stat5b transcriptional activity, beta-casein promoter luciferase reporter gene assay in PC-3 cells. It is filed as cell-based. The conditions noted are these: varying concentration. On the procedure: Cells of the human prostate cell line PC-3 were plated into 96-well plate at the density of 2×10^5 per well. After 24 hours of plating, cells were transiently co-transfected using FuGENE6 (Roche) with 0.25 μg of each of pStat5a or pStat5b, pPrlR (prolactin receptor) plasmids, 0.5 μg of pBeta-casein-luc and 0.025 μg of pRL-TK (Renilla luciferase) plasmids as an internal control. After another 24 hours of transfection, the cells were starved in serum-free medium for 8 hours, pretreated with N^6-benzyladenosine (“N6BA”), or the control compound C5, for 1 hour, and then stimulated with 10 nM human prolactin (hPrl) in the serum-free medium for additional 16 hours. The lysates were assayed for firefly and Renilla luciferase activities using the Dual-Luciferase reporter assay system (Promega). Three independent experiments were carried out in triplicate. The firefly luciferase activity was normalized to the Renilla luciferase activity of the same sample, and the mean was calculated from the parallels. From the mean values of each independent run, the overall mean and its standard deviation (S.D.) were calculated.

The subject of test [1] is Stat5a/b. Kind of test: Constitutive Stat5a/b phosphorylation in imatinib-sensitive KCL22S cells (Western blot). Type of test: cell-based, human. On the procedure:
(§1) Exponentially growing KCL22S and KCL22R cells were treated with Compound 1 or Compound 2 at various concentrations for 3 h and 16 h (Compound 1) or 3 h, 6 h or 16 h (Compound 2) after which the cells were harvested. Cell pellets were solubilized in lysis buffer [10 mM Tris-HCl (pH 7.6), 5 mM EDTA, 50 mM sodium chloride, 30 mM sodium pyrophosphate, 50 mM sodium fluoride, 1 mM sodium orthovanadate, 1% Triton X-100, 1 mM phenylmethylsulfonyl fluoride, 5 μg/ml aprotinin, 1 μg/ml pepstatin A, and 2 μg/ml leupeptin], rotated end-over-end at 4° C. for 60 min, and insoluble material was pelleted at 12,000×g for 30 min at 4° C. The protein concentrations of clarified cell lysates were determined by simplified Bradford method (Bio-Rad Laboratories, Hercules, Calif.). Western blotting of the lysates was carried out using, as primary antibodies, the following antibodies at the following concentrations: anti-phosphotyrosine-Stat5a/b (Y694/Y699) mAb (1 μg/ml, Advantex BioReagents, Conroe, Tex.), anti-Stat5ab mAb (1:250; BD Biosciences, San Jose, Calif.) or anti-actin pAb (Sigma). Anti-actin was included as a control.
(§2) Exponentially growing K562 cells were treated with NBPP for 3 h or 6 h after which the cells were harvested. Exponentially growing K562 cells or imatinib-resistant K562 cells were treated with NBPP for 6 h or 16 h after which the cells were harvested. Cell pellets were solubilized in lysis buffer [10 mM Tris-HCl (pH 7.6), 5 mM EDTA, 50 mM sodium chloride, 30 mM sodium pyrophosphate, 50 mM sodium fluoride, 1 mM sodium orthovanadate, 1% Triton X-100, 1 mM phenylmethylsulfonyl fluoride, 5 μg/ml aprotinin, 1 μg/ml pepstatin A, and 2 μg/ml leupeptin], rotated end-over-end at 4° C. for 60 min, and insoluble material was pelleted at 12,000×g for 30 min at 4° C. The protein concentrations of clarified cell lysates were determined by simplified Bradford method (Bio-Rad Laboratories, Hercules, Calif.). […]

For test [2], the system named is Stat5a/b. Kind of test: Constitutive Stat5a/b phosphorylation in imatinib-resistant KCL22R cells (Western blot). It is filed as cell-based, human. On the procedure:
as §1, §2

For test [3], the system named is KCL22 human chronic myeloid leukemia cells. Kind of test: Cell viability, MTS assay, KCL22 (imatinib-sensitive) chronic myeloid leukemia cells. It is filed as cell-based. The settings on record: KCL22 (KCL22S), 72 h, 3.1, 6.3, 12.5, 25 and 50 μM, vs control compound C5. On the procedure:
Exponentially growing KCL22 human chronic myeloid leukemia cells were treated with Compound 1, Compound 2 or the control compound C5 for 72 h at 3.1, 6.3. 12.5, 25 and 50 μM concentrations. The cell viability was assessed by MTS (3-(4,5-dimethylthiazolyl-2)-2,5-diphenyl-tetrazolium bromide) metabolic activity assay (CellTiter 96® AQueous Assay kit).
Exponentially growing CWR22Rv1 prostate cancer cells, K562 leukemia cells and imatinib-sensitive KCL22S and imatinib-resistant KCL22R chronic myeloid leukemia cells were treated with NBPP or the control compound C5 for 72 h at 3.1, 6.3. 12.5, 25 and 50 μM concentrations. The cell viability was assessed by MTS (3-(4,5-dimethylthiazolyl-2)-2,5-diphenyl-tetrazolium bromide) metabolic activity assay (CellTiter 96® AQueous Assay kit).

The mark [4] stands for this setting: KCL22S, various concentrations, 3 h and 16 h (Compound 1) or 3 h, 6 h or 16 h (Compound 2).
[5] abbreviates: KCL22R, various concentrations, 3 h and 16 h (Compound 1) or 3 h, 6 h or 16 h (Compound 2).

The structures appear in SMILES notation.

In the case of `OC[C@H]1O[C@@H](n2cnc3c(NCc4ccccc4)ncnc32)[C@H](O)[C@@H]1O` [Compound N6BA, N^6-benzyladenosine], the “effect on transcriptional activity of Stat5b” value (shortened to “effect … of Stat5b”) on Stat5b is “inhibited Stat5 transcriptional activity in a concentration-dependent manner”.
`OC[C@H]1O[C@@H](n2cnc3c(NNc4ccccc4)ncnc32)[C@H](O)[C@@H]1O` [Compound 2, (2R,3S,4R,5R)-2-(hydroxymethyl)-5-(6-(2-phenylhydrazinyl)-9H-purin-9-yl)tetrahydrofuran-3,4-diol]: the “effect on phosphorylation of Stat5” value in the test on Stat5a/b [1] (setting [4]) and in the test on Stat5a/b [2] (setting [5]) was “block phosphorylation of Stat5” throughout. In addition, the “number of viable cells” value in test [3] is listed as “decreased the number of viable leukemic cancer cells compared to the control compound”. At Stat5b, the “effect … of Stat5b” value is “inhibited Stat5a and Stat5b transcriptional activity in a concentration-dependent manner”.
On to `OC[C@H]1O[C@@H](n2ccc3c(NCc4ccccc4)ncnc32)[C@H](O)[C@@H]1O` [NBPP, N-(phenylmethyl)-7-β-D-ribofuranosyl-7H-pyrrolo[2,3-d]pyrimidin-4-amine], for which the “effect on phosphorylation of Stat5” value with Stat5a/b [1] (KCL22S imatinib-sensitive, 6 h or 16 h) is recorded as “inhibits phosphorylation of Stat5”; in the test with Stat5a/b [2] (KCL22R imatinib-resistant, 6 h or 16 h) it was “inhibits phosphorylation of Stat5”. In addition, the “number of viable cells” value in test [3] is on record as “decreased the number of viable KCL22S cells”.
Consider `OC[C@H]1O[C@@H](n2cnc3c(N4CCc5ccccc5C4)ncnc32)[C@H](O)[C@@H]1O` [Compound 1, (2R,3R,4S,5R)-2-(6-(3,4-Dihydroisoquinolin-2(1H)-yl)-9H-purin-9-yl)-5-(hydroxymethyl)tetrahydrofuran-3,4-diol], for which the “effect on phosphorylation of Stat5” value in the test with Stat5a/b [1] (setting [4]) and with Stat5a/b [2] (setting [5]) was “block phosphorylation of Stat5” each time. The “number of viable cells” value in test [3] is on record as “decreased the number of viable leukemic cancer cells compared to the control compound”. Further, the “effect … of Stat5b” value at Stat5b is “inhibited Stat5a and Stat5b transcriptional activity in a concentration-dependent manner”.
